The subject of assay [1] is ykt6. The assay is described as follows: Ykt6 membrane shift analysis (cytosol/membrane fractions) in FTI-treated cultures. In kind it is cell-based, human. The conditions noted are these: SH-SY5Y wt a-syn cells and A53T iPSn; 5 nM, 5 days. As for the experimental part: FIGS. 5A, 5B, 5C, 5D, 5E, 5F, and 5G. Reducing farnesyl-ykt6 enhances SNARE assembly and improves the lysosomal targeting of GCase. 5A) Ykt6 membrane shift analysis of SH-SY5Y cells expressing GFP-ykt6 wt or CS (n=3). 5B) Co-IP of GFP-ykt6 and bet1 in A53T iPSn (n=3). 5C) Ykt6 membrane shift analysis in FTI-treated SH-SY5Y wt a-syn cells or A53T iPSn (5 nM farnesyltransferase inhibitors (FTI) LNK-754 (FTI-1) or LNK-3248 (FTI-2) for 5 days) (n=4). Sec22b was measured to assess specificity. 5D) SEC/western blot of FTI-1 treated SH-SY5Y cells. Quantification is shown below. 5E) Co-IP of GFP-ykt6 wt or mutant ykt6-SS, (cannot be palmitoylated or farnesylated) in FTI-treated SHSY5Y cells (5 nM LNK-754, 5d) (n=2). 5F) Immunofluorescence of GCase and LAMP2A in FTI-treated H4 a-syn cells transfected with scrambled (scrb) or ykt6 shRNA (n=3). Scale bar=10 um. 5G) GCase maturation analysis in FTI-treated A53T iPSn by endo H (n=3). Values are the mean+/−SEM, *p<0.05.
Separation of lysates into cytosol and membrane fractions. […] Fractions were then analyzed by western blot analysis as described below. The samples were not analyzed in a blinded manner.
Treatment of cultures with farnesyltransferase inhibitors. […] Cultures were harvested and analyzed as described in the above sections.

Assay [2] has as its system ykt6. Kind of assay: Measurement of farnesyl-ykt6 in SH-SY5Y cells. In kind it is cell-based, human. The conditions noted are these: SH-SY5Y cells expressing GFP-ykt6; 10 nM FTI, 48 hours. The protocol:
FIGS. 14A, 14B, 14C, 14D, 14E, 14F, and 14G. The effects of FTI treatment on ykt6 and lysosomes. 14A) Farnesylation of ykt6 was measured in SH-SY5Y cells expressing GFP-ykt6. Cells treated with or without FTI (LNK-754) were cultured with farnesyl-azide to label farnesyl-modified proteins, immunoprecipitated with GFPaffinity beads, and then conjugated with phosphine-biotin. Biotin was detected with streptavidin-conjugated IRDye800, and normalized to total levels of GFP-ykt6. See methods for details. […] 14B) Membrane shift analysis of SH-SY5Y cells stably expressing GFP-ykt6-CS, treated with 5 nM FTI. Calnexin (CNX) and Coomassie blue (CBB) were used as a loading controls. 14C) Gel filtration/western blot analysis of FTI treated A53T iPSn. Ykt6 complex levels eluting at ca. 120A were quantified on the right (n=2). […] 14E) Raw quantification data of LAMP2A immunofluorescence intensity of individual cells from H4 cells treated with FTI, +/−ykt6 KD. Each data point represents LAMP2A intensity from individual cells, from 3 different culture wells. 14F) Analysis of ER-Golgi trafficking of GCase by endo H resistance after treatment with FTI in SH-SY5Y cells overexpressing wt a-syn (n=3). 14G) Western blot analysis of Triton X-100 soluble a-syn in SH-SY5Y wt a-syn cells after treatment with various concentrations of FTI for 5 days. For all quantifications, values are the mean+/−SEM, *p<0.05. […]

With `C#Cc1cccc(-c2cc(=O)n(C)c3ccc([C@](O)(c4ccc(Cl)cc4)c4cncn4C)cc23)c1` [LNK-754], in the assay with ykt6 [1], the “membrane association of ykt6” value is given as “increased membrane association of ykt6” and the “sec22b levels (specificity)” value is given as “did not change”. The “reduction of the farnesyl-ykt6 signal” value in the assay with ykt6 [2] was found to be 40%.

Source of the values: patent US12226410B2, “Methods for enhancing cellular clearance of pathological molecules via activation of the cellular protein ykt6” (NORTHWESTERN UNIVERSITY, priority 2019, dated 2025).
